Experimental data published in patent US20250049679A1, “FORMULATIONS OF ERIODICTYOL” (DEBUT BIOTECHNOLOGY, INC., priority 2023, published 2025).
Entries after “also recorded” stand apart in the source; their conditions may differ.

What was measured:
[1] = tested on: macrophage cells; conditions: cited from earlier work
[2] = tested on: Keratinocytes; conditions: skin; cited from earlier work
[3] = tested on: MMP1 (matrix metallopeptidase 1); assay: Gene modulation; type: cell-based
From the text: (§1) Table 9, provided below, incorporates the gene modulation data for formulations comprising eriodictyol.

[4] = tested on: SLC13A5 (Solute carrier family 13 member 5); assay: Gene modulation; type: cell-based
From the text: as §1

[5] = tested on: IL6 (Interleukin 6); assay: Gene modulation; type: cell-based
From the text: as §1

[6] = tested on: MKI67 (marker of proliferation Ki-67); assay: Gene modulation; type: cell-based
From the text: as §1

[7] = tested on: ATP12A (ATPase H+/K+ transporting non-gastric alpha2 subunit); assay: Gene modulation; type: cell-based
From the text: as §1

[8] = tested on: TFPI2 (tissue factor pathway inhibitor 2); assay: Gene modulation; type: cell-based
From the text: as §1

[9] = tested on: KCTD4 (potassium channel tetramerization domain containing 4); assay: Gene modulation; type: cell-based
From the text: as §1

[10] = tested on: IL23A (Interleukin 23); assay: Gene modulation; type: cell-based
From the text: as §1

[11] = tested on: FST (follistatin); assay: Gene modulation; type: cell-based
From the text: as §1

[12] = tested on: TNF (Tumor Necrosis Factor); assay: Gene modulation; type: cell-based
From the text: as §1

[13] = tested on: TOP2A (DNA topoisomerase II alpha); assay: Gene modulation; type: cell-based
From the text: as §1

[14] = tested on: PPFIA4 (PTPRF interacting protein alpha 4); assay: Gene modulation; type: cell-based
From the text: as §1

[15] = tested on: IL24 (Interleukin 24); assay: Gene modulation; type: cell-based
From the text: as §1

[16] = tested on: ALDH1A3 (aldehyde dehydrogenase 1 family member A3); assay: Gene modulation; type: cell-based
From the text: as §1

[17] = tested on: THBS1 (thrombospondin 1); assay: Gene modulation; type: cell-based
From the text: as §1

[18] = tested on: MMP3 (Matrix Metallopeptidase 3); assay: Gene modulation; type: cell-based
From the text: as §1

[19] = tested on: MMP10 (matrix metallopeptidase 10); assay: Gene modulation; type: cell-based
From the text: as §1

[20] = tested on: MMP9 (Matrix Metallopeptidase 9); assay: Gene modulation; type: cell-based
From the text: as §1

[21] = tested on: FN1 (fibronectin 1); assay: Gene modulation; type: cell-based
From the text: as §1

[22] = tested on: Nrf2/HO-1 pathway; conditions: mice, acting on the Nrf2/HO-1 pathway; Li et al. 2022; cited from earlier work
[23] = DPPH antioxidant activity assay (organic medium); type: biochemical; conditions: for % Radical Inhibition: DPPH
From the text: The 2,2-diphenyl-1-picrylhydrazyl (DPPH) antioxidant assay is designed to evaluate the antioxidant activity of compositions comprising eriodictyol in an organic medium. […] In the presence of an antioxidant DPPH is reduced, resulting in the formation of a colorless solution. Reduction of absorbance at 517 nm is standardized to solvent control as an indication of DPPH scavenging.

[24] = Stability of eriodictyol in dimethyl isosorbide; type: physicochemical
From the text: Thus, the compositions of the invention will also be stable for storage for at least 2 years under ambient conditions.

[25] = molecular target: tyrosinase (Mus musculus, UniProt P11344); conditions: cited from earlier work
[26] = ABTS antioxidant assay (aqueous medium); type: biochemical; conditions: for % Radical Inhibition: ABTS
From the text: ABTS+ solution is generated as a free radical and used to measure relative ability of a compound to scavenge free radicals. Reduction of the absorbance at 734 nm was standardized to solvent control as an indication of ABTS+ scavenging.

[27] = tested on: melanoma cells; conditions: cited from earlier work
[28] = tested on: ICR mice; conditions: mouse skin; Park et al. 2013; cited from earlier work
[29] = molecular target: TRPV1 receptors (Homo sapiens, UniProt Q8NER1); conditions: acting on TRPV1 receptors; Deng et al. 2020; cited from earlier work
[30] = molecular target: T1, human neutrophil elastase (Homo sapiens, UniProt P08246); assay: Elastase enzyme inhibition; type: biochemical
T1 sequence (P08246 30-267): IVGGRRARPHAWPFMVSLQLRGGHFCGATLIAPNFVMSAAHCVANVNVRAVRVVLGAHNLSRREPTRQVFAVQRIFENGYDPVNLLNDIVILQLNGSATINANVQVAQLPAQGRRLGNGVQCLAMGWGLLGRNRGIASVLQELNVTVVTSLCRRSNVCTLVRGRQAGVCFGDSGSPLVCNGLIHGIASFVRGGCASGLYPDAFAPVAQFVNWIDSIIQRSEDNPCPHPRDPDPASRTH
Experimental: The assay was conducted to evaluate the elastase enzyme inhibition activity of compositions comprising eriodictyol. Neutrophil infiltration and neutrophil elastase are both increased in the skin in response to UV stress. […] Therefore, inhibition of this enzyme, particularly in combination with antioxidant activity, is effective in delaying wrinkle development and aiding in maintaining skin integrity. This assay is measures release of 4-nitroaniline from an Me-Suc-[…] by human neutrophil elastase and can be quantified at 405 nm by comparing to solvent control.

[31] = Glycation inhibition assay; type: biochemical; conditions: for % Enzyme Inhibition: glycation
Experimental: The assay was conducted to evaluate the glycation inhibition activity of compositions comprising eriodictyol. Nonenzymatic glycation can occur when glucose reacts with proteins, forming a Schiff base intermediate that subsequently undergoes Amadori rearrangement to form glycosylated proteins, when they react with skin proteins to form Advanced Glycation End products (AGE). AGE formation can result in loss of skin elasticity and impaired cellular function. The glycation inhibition ability of a compound is measured by change in fluorescence at excitation/emission of 360 nm/420 nm relative to solvent control.

[32] = Solubility of eriodictyol in solvents; type: physicochemical

Chain of TRPV1 receptors (Q8NER1 whole entry): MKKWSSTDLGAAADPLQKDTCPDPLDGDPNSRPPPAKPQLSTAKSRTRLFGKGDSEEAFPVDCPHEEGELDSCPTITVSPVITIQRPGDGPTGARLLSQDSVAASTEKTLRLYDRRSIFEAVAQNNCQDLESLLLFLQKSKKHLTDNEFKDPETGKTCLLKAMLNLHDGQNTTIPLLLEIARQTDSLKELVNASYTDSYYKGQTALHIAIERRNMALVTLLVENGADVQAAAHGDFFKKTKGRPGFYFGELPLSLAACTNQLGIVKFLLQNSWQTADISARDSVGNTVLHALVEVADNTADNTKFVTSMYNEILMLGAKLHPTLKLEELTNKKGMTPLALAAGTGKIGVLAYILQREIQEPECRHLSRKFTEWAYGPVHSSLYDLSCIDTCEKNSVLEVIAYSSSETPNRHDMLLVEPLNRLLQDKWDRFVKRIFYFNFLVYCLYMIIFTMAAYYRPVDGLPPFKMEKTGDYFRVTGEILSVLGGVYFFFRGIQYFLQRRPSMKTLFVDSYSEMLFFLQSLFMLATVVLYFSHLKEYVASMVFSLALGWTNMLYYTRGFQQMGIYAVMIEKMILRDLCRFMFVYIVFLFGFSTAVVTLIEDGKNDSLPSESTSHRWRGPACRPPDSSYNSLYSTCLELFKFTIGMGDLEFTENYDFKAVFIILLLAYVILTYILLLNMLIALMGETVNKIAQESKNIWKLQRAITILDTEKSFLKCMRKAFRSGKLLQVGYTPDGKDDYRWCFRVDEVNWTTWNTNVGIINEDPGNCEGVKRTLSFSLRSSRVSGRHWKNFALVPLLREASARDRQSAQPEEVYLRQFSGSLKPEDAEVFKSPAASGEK
Chain of tyrosinase (P11344 19-533): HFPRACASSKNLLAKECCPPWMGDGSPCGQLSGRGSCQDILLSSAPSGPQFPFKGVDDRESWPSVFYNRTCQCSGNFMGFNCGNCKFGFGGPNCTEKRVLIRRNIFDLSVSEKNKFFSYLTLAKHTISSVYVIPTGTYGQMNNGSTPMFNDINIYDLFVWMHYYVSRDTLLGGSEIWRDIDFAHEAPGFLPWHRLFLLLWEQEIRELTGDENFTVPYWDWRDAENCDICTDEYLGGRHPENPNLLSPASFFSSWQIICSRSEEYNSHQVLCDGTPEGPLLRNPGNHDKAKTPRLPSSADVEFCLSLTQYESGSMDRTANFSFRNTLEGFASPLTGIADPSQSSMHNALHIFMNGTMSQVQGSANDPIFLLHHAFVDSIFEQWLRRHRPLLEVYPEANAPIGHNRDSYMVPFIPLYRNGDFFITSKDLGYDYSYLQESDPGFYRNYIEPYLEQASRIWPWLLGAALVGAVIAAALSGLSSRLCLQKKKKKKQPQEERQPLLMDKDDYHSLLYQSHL

## O=C1C[C@@H](c2ccc(O)c(O)c2)Oc2cc(O)cc(O)c21 [eriodictyol]
[1]
  Anti-inflammatory activity: inflammatory markers: decrease inflammatory markers
[2]
  Protection from UVA-induced photodamage and apoptosis: protecting skin from UVA-induced photodamage and apoptosis
[3]; MMP1
  Treatment (gene expression level): 972.9
[3]; MMP1, treatment vs control
  Fold Change: −11.3
[4]; SLC13A5
  Treatment (gene expression level): 5.9
[4]; SLC13A5, treatment vs control
  Fold Change: −13.9
[5]; IL6
  Treatment (gene expression level): 1.2
[5]; IL6, treatment vs control
  Fold Change: −19.7
[6]; MKI67
  Treatment (gene expression level): 78.7
[6]; MKI67, treatment vs control
  Fold Change: −10.6
[7]
  Treatment (gene expression level): 76.4
[7]; treatment vs control
  Fold Change: −11.3
[8]; TFPI2
  Treatment (gene expression level): 34.1
[8]; TFPI2, treatment vs control
  Fold Change: −17.1
[9]; KCTD4
  Treatment (gene expression level): 36.4
[9]; KCTD4, treatment vs control
  Fold Change: −14.9
[10]
  Treatment (gene expression level): 5.9
[10]; treatment vs control
  Fold Change: −6.1
[11]
  Treatment (gene expression level): 96.4
[11]; treatment vs control
  Fold Change: −9.8
[12]
  Treatment (gene expression level): 0.0
[12]; treatment vs control
  Fold Change: −256.0
[13]
  Treatment (gene expression level): 37.6
[13]; treatment vs control
  Fold Change: −18.4
[14]; PPFIA4
  Treatment (gene expression level): 628.6
[14]; PPFIA4, treatment vs control
  Fold Change: 27.9
[15]; IL24
  Treatment (gene expression level): 1.2
[15]; IL24, treatment vs control
  Fold Change: −73.5
[16]; ALDH1A3
  Treatment (gene expression level): 168.0
[16]; ALDH1A3, treatment vs control
  Fold Change: −9.8
[17]; THBS1
  Treatment (gene expression level): 344.3
[17]; THBS1, treatment vs control
  Fold Change: −16.0
[18]; MMP3
  Treatment (gene expression level): 8.2
[18]; MMP3, treatment vs control
  Fold Change: −48.5
[19]; MMP10
  Treatment (gene expression level): 106.9
[19]; MMP10, treatment vs control
  Fold Change: −24.3
[20]; MMP9
  Treatment (gene expression level): 527.6
[20]; MMP9, treatment vs control
  Fold Change: −8.6
[21]; FN1
  Treatment (gene expression level): 146.9
[21]; FN1, treatment vs control
  Fold Change: −12.1
[22]
  Cognitive decline: decreases cognitive decline
[23]; eriodictyol 0.00007 % w/w
  % Radical Inhibition: 21.22%
[23]; eriodictyol 0.00046 % w/w
  % Radical Inhibition: 81.45%
[23]; eriodictyol 0.00278 % w/w
  % Radical Inhibition: 81.95%
[23]; organic solvent system, calculated
  IC50 antioxidant activity: 0.0002 % w/w
[23]; organic solvent systems
  Lowest concentration demonstrating antioxidant activity: 0.00007 % w/w
[24]; 4 C.
  30 day % remaining: 104.66%
  90 day % remaining: 97.15%
[24]; 25 C.
  30 day % remaining: 100.78%
  90 day % remaining: 91.72%
  180 day % remaining: 90.30%
[24]; 40 C.
  30 day % remaining: 93.53%
  90 day % remaining: 98.06%
[24]; 50 C.
  30 day % remaining: 95.73%
[25]
  Tyrosinase inhibition: inhibiting tyrosinase
[26]; eriodictyol 0.00016 % w/w
  % Radical Inhibition: 11.00%
[26]; eriodictyol 0.0008 % w/w
  % Radical Inhibition: 58.72%
[26]; eriodictyol 0.004 % w/w
  % Radical Inhibition: 92.97%
[26]; aqueous solvent system, calculated
  IC50 antioxidant activity: 0.00062 % w/w
[26]; aqueous systems
  Lowest concentration demonstrating antioxidant activity: 0.00016 % w/w
[27]
  Melanogenesis: decreases melanogenesis
[28]
  Symptoms of atopic dermatitis: alleviating symptoms of atopic dermatitis
[29]
  Neuroinflammation and hypererythema: reduces neuroinflammation and relieves hypererythema
[30]
  Lowest concentration inhibiting elastase enzyme activity: 0.008 % w/w
[30]; calculated
  IC50 elastase enzyme inhibition: 0.107 % w/w
[30]; elastase, eriodictyol 0.008 % w/w
  inhibition at 0.008 % strength: 17.6%
[30]; elastase, eriodictyol 0.04 % w/w
  inhibition at 0.04 % strength: 23.1%
[30]; elastase, eriodictyol 0.2 % w/w
  inhibition at 0.2 % strength: 58.1%
[31]
  Lowest concentration inhibiting glycation: 0.002 % w/w
[31]; calculated
  IC50 glycation inhibition: 0.0088 % w/w
[31]; eriodictyol 0.002 % w/w
  % Enzyme Inhibition: 38.43%
[31]; eriodictyol 0.007 % w/w
  % Enzyme Inhibition: 86.18%
[31]; eriodictyol 0.022 % w/w
  % Enzyme Inhibition: 90.26%
[32]; in Caprylic/Capric Triglyceride
  Solubility (% w/w): only minimally soluble; also recorded: Not soluble
[32]; in Helianthus Annuus (Sunflower) Seed Oil
  Solubility (% w/w): insoluble; also recorded: Not soluble
[32]; in Pentylene Glycol
  Solubility (% w/w): only minimally soluble; also recorded: Not soluble
[32]; in oil
  Solubility: poorly soluble or insoluble
[32]; in water
  Solubility: poorly soluble or insoluble
